Patent publication US10765754B2, “Compositions and methods related to inhibition of respiratory syncytial virus entry” (priority 2015, dated 2020)
Starred links: 1 amine or outer side, 2 acyl side, 3 side chain; linkers in the order of their positions; H or OH if unused. Positions of bridges follow the written chain, without caps; N, C: chain ends. Non-standard residues stand in square brackets, D forms with d. Residues, ends and D or L forms follow the SMILES beside them. Chains are numbered I, II in the order given. No end group written: not given here. X1 = NCCOCCOCCOCCOCCOCCOCCOCCOCCOCCOCCOCCOCCOCCOCCOCCOCCOCCOCCOCCOCCOCCOCCOCCOCCOCCOCCOCCOCCC(=O)NC(CCC(=O)[*:1])(CCC(=O)[*:2])CCC(=O)[*:3]; X2 = CC(COCCC(=O)[*:1])(COCCC(=O)[*:2])COCCC(=O)[*:3]; PEG6 = NCCOCCOCCOCCOCCOCCOCCC(=O)O

Columns and labels:
[1] = target: T1, RSV-B/IZN45 (Human respiratory syncytial virus B, UniProt O36634); assay: biochemical; format: binding
T1 construct: N-trimer Mimics Synthesized; made in house; host or cells: chemical peptide synthesis
Text: (§1) IZN45 N-trimer mimic comprises the IZ domain, a highly soluble, designed coiled-coil that helps solubilize the N-trimer, along with the C-terminal (bottom) 45 residues of the RSV N-trimer. IZN45 encompasses the full ordered portion of the N-trimer except for three N-terminal residues (removed to maintain a continuous heptad repeat with the IZ domain). The interactions between 35-residue RSV C-peptides, T108 and T118 (Lambert et al., 1996, Proc. Natl. Acad. Sci. USA 93:2186-2191), and IZN45 was examined by surface plasmon resonance (SPR). SPR is a gold standard assay to measure the kinetics and affinity of biological interactions. […] The Biotinylated L-form of RSV target IZN45 was captured onto one lane of a NeutrAvidin coated SPR chip. A mutant version of IZN45 containing four mutated residues along the N-trimer groove designed to disrupt binding (IZN45 Full Mut, negative control) was captured onto a separate lane of the NeutrAvidin chip. T118, corresponding to the C-terminal portion of the RSV F ectodomain, which is known to interact with the RSV N-trimer groove, was flowed over the various surfaces. […] The surfaces were regenerated with a detergent (0.1% SDS) after each injection of analyte. Various concentrations of T118 were measured in duplicate or triplicate injections. D-peptide interactions with IZN45 and IZN45-Full Mut surfaces were also measured using this method.
(§2) Peptides from the ‘winning’ phage clones from each library were synthesized as D-peptides. If solubility of the peptides was limited, N- or C-terminal charged residue(s) (e.g., lysine) were attached as necessary as previously described for HIV peptides in Eckert et al., 1999, Cell 99:103-15, incorporated by reference in its entirety. Binding affinity and kinetics of the D-peptide inhibitors to the IZN45 and IZN45 mutants was characterized by SPR (Biacore 3000), using methods as described in Welch et al., 2007, Proc. Natl. Acad. Sci. USA 104:16828-33, incorporated by reference in its entirety.

[2] = target: T2, RSV-A/IZN45 (Human respiratory syncytial virus A, UniProt P03420); assay: SPR binding to RSV-A IZN45 N-trimer mimic
T2 construct: N-trimer Mimics Synthesized; made in house; host or cells: chemical peptide synthesis
Text: as §1, §2

[3] = synthesized peptide, RSV-B/IZN45, KD determined by SPR
[4] = Kd, synthesized peptide, RSV-A/IZN45, KD determined by SPR
[5] = Kd, subsequent trimer/compound made from peptide, RSV-A/IZN45, SPR

T1 sequence (O36634 163-207, added parts left off): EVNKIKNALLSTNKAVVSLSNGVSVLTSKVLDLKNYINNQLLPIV
T2 sequence (P03420 163-207, added parts left off): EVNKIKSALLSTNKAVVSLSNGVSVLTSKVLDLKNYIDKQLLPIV

Compound: CSCC[C@@H](NC(=O)[C@@H](CO)NC(=O)CNC(=O)[C@@H](CC(=O)O)NC(=O)[C@@H](CC(=O)O)NC(=O)CCOCCOCCOCCOCCOCCOCCNC(=O)[C@@H](CCCCN)NC(C)=O)C(=O)N[C@@H]1CSSC[C@H](C(=O)NCC(=O)N[C@@H](C(N)=O)[C@H](C)O)NC(=O)[C@@H](Cc2c[nH]c3ccccc23)NC(=O)[C@@H](CC(=O)O)NC(=O)[C@@H](CC(C)C)NC(=O)[C@@H](CC(C)C)NC(=O)[C@@H](Cc2c[nH]c3ccccc23)NC(=O)[C@@H](CCC(=O)O)NC(=O)[C@H]2CCCN2C(=O)[C@@H](CCCNC(=N)N)NC(=O)[C@@H](CC(N)=O)NC(=O)[C@@H](C(C)C)NC1=O [Ac-K(PEG6)DDG-RSVP24] (Ac-[dK][PEG6][dD][dD]G[dS][dM][dC][dV][dN][dR][dP][dE][dW][dL][dL][dD][dW][dC]G[dT]-NH2; disulfide 8-19)
- Kd [1, 3]: 1800 nM
- Kd [2, 4]: 2100 nM

Compound: CC[C@@H](C)[C@@H](N)C(=O)N[C@H](CO)C(=O)N[C@H](CC(C)C)C(=O)N1CCC[C@@H]1C(=O)N[C@@H](C(=O)N1CCC[C@@H]1C(=O)N[C@@H](C(=O)N[C@H](Cc1c[nH]c2ccccc12)C(=O)N[C@H](Cc1c[nH]c2ccccc12)C(=O)N1CCC[C@@H]1C(=O)N[C@H](CO)C(=O)N[C@@H](C(=O)NCC(=O)N[C@H](CCCCN)C(N)=O)[C@H](C)O)[C@H](C)O)[C@H](C)O [X12-45-GK] (H-[dI][dS][dL][dP][dT][dP][dT][dW][dW][dP][dS][dT]G[dK]-NH2)
- Kd [1, 3]: 6000 nM

Compound: CC[C@@H](C)[C@@H](NC(=O)[C@H](NC(=O)[C@@H](CCCCN)NC(=O)[C@H](N)CO)C(C)C)C(=O)N[C@H](CC(C)C)C(=O)N1CCC[C@@H]1C(=O)N[C@H](CCC(=O)O)C(=O)N1CCC[C@@H]1C(=O)N[C@H](Cc1ccccc1)C(=O)N[C@H](Cc1c[nH]c2ccccc12)C(=O)N[C@H](Cc1c[nH]c2ccccc12)C(=O)N1CCC[C@@H]1C(=O)NCC(=O)NCC(N)=O [X12-47-GG] (H-[dS][dK][dV][dI][dL][dP][dE][dP][dF][dW][dW][dP]GG-NH2)
- Kd [1, 3]: 17000 nM

Compound: CC[C@@H](C)[C@@H](NC(=O)[C@H](NC(=O)[C@@H](CCCCN)NC(=O)[C@H](N)CO)C(C)C)C(=O)N[C@H](CC(C)C)C(=O)N1CCC[C@@H]1C(=O)N[C@H](CCC(=O)O)C(=O)N1CCC[C@@H]1C(=O)N[C@H](Cc1ccccc1)C(=O)N[C@H](Cc1c[nH]c2ccccc12)C(=O)N[C@H](Cc1c[nH]c2ccccc12)C(=O)N1CCC[C@@H]1C(N)=O [X12-47] (H-[dS][dK][dV][dI][dL][dP][dE][dP][dF][dW][dW][dP]-NH2)
- Kd [1, 3]: 10000 nM

Compound: CSCC[C@@H](NC(=O)[C@@H](Cc1c[nH]c2ccccc12)NC(=O)[C@@H](Cc1c[nH]c2ccccc12)NC(=O)[C@@H](Cc1ccc(O)cc1)NC(=O)[C@@H](CCCCN)NC(=O)[C@@H](CC(C)C)NC(=O)[C@H](N)CO)C(=O)N[C@H](CCC(=O)O)C(=O)N[C@H](CCC(=O)O)C(=O)N[C@H](CC(C)C)C(=O)N1CCC[C@@H]1C(=O)N[C@H](CC(C)C)C(=O)N1CCC[C@@H]1C(=O)N[C@H](CCCCN)C(=O)N[C@H](Cc1c[nH]c2ccccc12)C(=O)N[C@H](Cc1c[nH]c2ccccc12)C(=O)NCC(=O)NCC(N)=O [X16-18-GG] (H-[dS][dL][dK][dY][dW][dW][dM][dE][dE][dL][dP][dL][dP][dK][dW][dW]GG-NH2)
- Kd [1, 3]: 24000 nM

Compound: CSCC[C@@H](NC(=O)[C@@H](Cc1c[nH]c2ccccc12)NC(=O)[C@@H](Cc1c[nH]c2ccccc12)NC(=O)[C@@H](Cc1ccc(O)cc1)NC(=O)[C@@H](CCCCN)NC(=O)[C@@H](CC(C)C)NC(=O)[C@H](N)CO)C(=O)N[C@H](CCC(=O)O)C(=O)N[C@H](CCC(=O)O)C(=O)N[C@H](CC(C)C)C(=O)N1CCC[C@@H]1C(=O)N[C@H](CC(C)C)C(=O)N1CCC[C@@H]1C(=O)N[C@H](CCCCN)C(=O)N[C@H](Cc1c[nH]c2ccccc12)C(=O)N[C@H](Cc1c[nH]c2ccccc12)C(N)=O [X16-18] (H-[dS][dL][dK][dY][dW][dW][dM][dE][dE][dL][dP][dL][dP][dK][dW][dW]-NH2)
- Kd [1, 3]: 16000 nM

Compound: CC[C@@H](C)[C@@H](NC(=O)[C@@H](CC(=O)O)NC(=O)[C@@H](CC(=O)O)NC(=O)[C@@H](Cc1c[nH]c2ccccc12)NC(=O)[C@@H](Cc1c[nH]c2ccccc12)NC(=O)[C@H]1CCCN1C(=O)[C@@H](CCC(N)=O)NC(=O)[C@@H](CC(C)C)NC(=O)[C@H]1CCCN1C(=O)[C@@H](CC(C)C)NC(=O)[C@@H](Cc1c[nH]c2ccccc12)NC(=O)[C@H](N)Cc1c[nH]cn1)C(=O)N1CCC[C@@H]1C(=O)N[C@@H](C(=O)N[C@H](Cc1c[nH]c2ccccc12)C(=O)N[C@H](Cc1c[nH]cn1)C(=O)NCC(=O)N[C@H](CCCCN)C(N)=O)C(C)C [X16-20-GK] (H-[dH][dW][dL][dP][dL][dQ][dP][dW][dW][dD][dD][dI][dP][dV][dW][dH]G[dK]-NH2)
- Kd [1, 3]: 2000 nM

Compound: I: Ac-[dI][dS][dL][dP][dT][dP][dT][dW][dW][dP][dS][dT]GG[PEG6][dK]-NH2 / II: Ac-[dI][dS][dL][dP][dT][dP][dT][dW][dW][dP][dS][dT]GG[PEG6][dK]-NH2 / III: Ac-[dI][dS][dL][dP][dT][dP][dT][dW][dW][dP][dS][dT]GG[PEG6][dK]-NH2 (linker I:16-II:16-III:16 via X2; C-terminus assumed) [Ac-X12-45-GG(PEG6)K-trimer]
- Kd ([1]; FIG. 10B, RSV-B version of IZN45): 66 nM
- Kd ([2]; KD, FIG. 10A, RSV-A version of IZN45): 49 nM
- Kd [2, 5]: 53 nM

Compound: I: Ac-[dK][PEG6]G[dA][dC][dT][dN][dR][dA][dE][dW][dL][dI][dD][dW][dC][dA][dA]-NH2 / II: Ac-[dK][PEG6]G[dA][dC][dT][dN][dR][dA][dE][dW][dL][dI][dD][dW][dC][dA][dA]-NH2 / III: Ac-[dK][PEG6]G[dA][dC][dT][dN][dR][dA][dE][dW][dL][dI][dD][dW][dC][dA][dA]-NH2 (linker I:1-II:1-III:1 via X1; disulfide I:5-I:16, II:5-II:16, III:5-III:16; C-terminus assumed) [Ac-K(PEG6)-RSVP21-trimer]
- Kd ([1]; subsequent trimer/compound made from peptide, RSV-B/IZN45, SPR): 1.8 nM
- Kd [2, 5]: 0.3 nM

Compound: I: H-[dK]G[dR][dW][dF][dE][dL][dP][dE][dP][dD][dW][dW]G[PEG6][dK]G[dK]G-NH2 / II: H-[dK]G[dR][dW][dF][dE][dL][dP][dE][dP][dD][dW][dW]G[PEG6] / III: H-[dK]G[dR][dW][dF][dE][dL][dP][dE][dP][dD][dW][dW]G[PEG6] (amide I:16-II:C, I:18-III:C) [KG-RSVP1-G(PEG6)-Tricasso]
- Kd [2, 4]: ~20 nM

Compound: I: H-[dR][dW][dF][dE][dL][dP][dE][dP][dD][dW][dW]G[dK][PEG6][dK]G[dK]G-NH2 / II: H-[dR][dW][dF][dE][dL][dP][dE][dP][dD][dW][dW]G[dK][PEG6] / III: H-[dR][dW][dF][dE][dL][dP][dE][dP][dD][dW][dW]G[dK][PEG6] (amide I:15-II:C, I:17-III:C) [RSVP1-GK(PEG6)-Tricasso]
- Kd [2, 4]: ~20 nM

Compound: I: [dK]G[dR][dW][dF][dE][dL][dP][dE][dP][dE][dW][dW]G[PEG6][dK]G[dK]G-NH2 / II: [dK]G[dR][dW][dF][dE][dL][dP][dE][dP][dE][dW][dW]G[PEG6] / III: [dK]G[dR][dW][dF][dE][dL][dP][dE][dP][dE][dW][dW]G[PEG6] (amide I:16-II:C, I:18-III:C) [KG-RSVP7-G(PEG6)-Tricasso]
- Kd [2, 4]: ~20 nM
